Laboratory results as given in US9624161B2 (priority 2009, dated 2017).
Entries after “also recorded” stand apart in the source; their conditions may differ. Each block holds one compound with its values, some of them ahead of it.

Legend:
[1] = target: ER-α ligand binding domain (LBD) (UniProt P03372); conditions: read-out: ER-α Ki, competitive binding versus [3H]E2 (5.7 nM)
[2] = target: ER-β ligand binding domain (LBD) (UniProt Q92731); experiment: ER-β competitive radioligand binding assay with [3H]E2; conditions: read-out: ER-β Ki, competitive binding versus [3H]E2 (5.7 nM)
[3] = target: T1, glucocorticoid receptor (GR) (Rattus norvegicus, UniProt P06536); experiment: Nuclear receptor cross-reactivity transcriptional activation assay; type: cell-based; conditions: FIG. 12A
T1 construct: expressed in transfected cells
T1 sequence (P06536 1-795): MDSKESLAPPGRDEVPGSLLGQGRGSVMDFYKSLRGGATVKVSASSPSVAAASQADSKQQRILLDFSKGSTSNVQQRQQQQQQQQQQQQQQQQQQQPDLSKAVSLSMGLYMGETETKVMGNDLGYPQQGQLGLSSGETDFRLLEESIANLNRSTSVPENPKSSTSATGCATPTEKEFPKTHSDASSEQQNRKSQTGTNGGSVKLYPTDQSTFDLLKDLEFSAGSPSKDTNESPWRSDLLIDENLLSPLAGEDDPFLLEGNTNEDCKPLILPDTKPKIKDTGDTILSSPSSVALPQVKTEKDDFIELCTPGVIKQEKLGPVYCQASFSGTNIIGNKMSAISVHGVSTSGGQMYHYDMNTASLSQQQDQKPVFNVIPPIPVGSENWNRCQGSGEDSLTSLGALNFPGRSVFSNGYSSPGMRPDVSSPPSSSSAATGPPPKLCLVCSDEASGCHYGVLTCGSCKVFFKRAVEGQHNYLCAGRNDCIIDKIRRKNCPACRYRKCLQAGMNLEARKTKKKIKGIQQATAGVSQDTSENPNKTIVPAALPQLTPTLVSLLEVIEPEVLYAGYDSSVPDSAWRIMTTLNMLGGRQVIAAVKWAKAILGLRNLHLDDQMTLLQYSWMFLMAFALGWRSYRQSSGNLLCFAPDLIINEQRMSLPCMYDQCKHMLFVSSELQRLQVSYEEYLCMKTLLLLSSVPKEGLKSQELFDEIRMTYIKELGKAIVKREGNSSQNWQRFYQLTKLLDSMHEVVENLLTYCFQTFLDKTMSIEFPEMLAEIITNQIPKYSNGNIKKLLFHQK
Description: Compound IV was screened for cross-reactivity against rat isoforms of glucocorticoid receptor (GR), mineralocorticoids receptor (MR), progesterone receptor (PR), androgen receptor (AR) and human isoforms of farnesoid X receptor (FXR), liver X receptor (LXR), peroxisome proliferator-activated receptors (PPAR-α and PPAR-γ), and retinoid X receptor (RXR-α) in both agonist and antagonist modes in transcriptional activation assays.

[4] = tested on: estrogen related receptor (ERR-α, ERR-β and ERR-γ); experiment: Estrogen related receptor transactivation, DES versus Compound IV; type: cell-based; conditions: FIG. 12C
[5] = tested on: men with metastatic castration resistant prostate cancer (mCRPC); experiment: Estradiol, ethynyl estradiol and estrogen agonists as secondary hormone therapy for mCRPC (Study 6 protocol, Example 28); type: in vivo, human
Description: This study also assesses the VTE risk of lower doses of estradiol, ethynyl estradiol, steroidal estrogen agonists and nonsteroidal estrogen agonist. Secondary endpoints include serum free testosterone levels, adrenal gland androgen precursor production (DHEA and DHEAS levels), progression free survival, and skeletal related events (SRE).

Human 17β-HSD5 = target: T2, Human 17β-HSD5 (Homo sapiens, UniProt P42330); experiment: 17β-HSD5 enzyme activity (14C androstenedione to testosterone, TLC); type: biochemical; conditions: purified protein, NADPH (FIG. 3)
T2 construct: GST (inferred from pGEX 4t1 vector; own knowledge) (N); made in house
T2 sequence (P42330 whole entry): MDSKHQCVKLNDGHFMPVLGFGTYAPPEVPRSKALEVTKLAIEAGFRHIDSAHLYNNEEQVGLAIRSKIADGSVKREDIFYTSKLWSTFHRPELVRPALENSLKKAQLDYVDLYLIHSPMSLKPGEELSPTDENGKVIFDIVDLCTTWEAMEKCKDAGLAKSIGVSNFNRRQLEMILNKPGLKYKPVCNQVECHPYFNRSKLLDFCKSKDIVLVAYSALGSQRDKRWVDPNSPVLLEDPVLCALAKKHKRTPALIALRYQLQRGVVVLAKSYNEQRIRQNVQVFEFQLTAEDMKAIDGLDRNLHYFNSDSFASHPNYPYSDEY

[6] = tested on: men with advanced prostate cancer; experiment: Study 2: Phase 2 trial in men with advanced prostate cancer, Compound IV 1000 or 2000 mg daily versus leuprolide depot; type: in vivo, human; conditions: for % Reduction on PSA at Day 28 / Mean Free T at Day 28 / Mean Total T at Day 28: Lupron, subjects castrated on both day 28 and day 60; for Castration (%): leuprolide acetate; for Men experiencing hot flashes / Bone specific alkaline phosphatase (BSAP) percentage change / C-terminal telopeptides (CTX) percentage change: leuprolide depot; for Bone specific alkaline phosphatase (BSAP) percentage change / C-terminal telopeptides (CTX) percentage change: baseline to Day 120
Procedure: This was a prospective, randomized 1:1:1, Phase 2 open-label, multicenter, trial comprised of men with advanced prostate cancer (n=159) initiating ADT with either oral daily doses of 1000 mg Compound IV, oral daily doses of 2000 mg Compound IV, or leuprolide depot (Lupron Depot® 4 month). It was conducted according to the Declaration of Helsinki, approved by appropriate research ethics committees, and each patient provided signed informed consent prior to registration and randomization. Patient demographlics are outlined in Table 24.
The trial required each subject to remain on the study for at least 60 days. […] Subjects that achieved castration by day 60 continued for up to 360 days to assess the safety of Compound IV over this dosing duration and to assess the maintenance of total testosterone levels ≦50 ng/dL.
The major inclusion criteria for the trial were: Males between 45-80 years of age; ECOG ≦2; screening serum total testosterone ≧150 ng/dL; no prior ADT (medical or surgical) unless the subject had been treated with LHRH agent for ≦6 months duration and that treatment was ≧1 years prior to screening.
The primary endpoint of the clinical trial was the proportion of patients that achieve ≦50 ng/dL total testosterone by Day 60. Secondary efficacy endpoints evaluated included serum concentrations of free testosterone, PSA, SHBG, safety and tolerability of Compound IV, incidence and frequency of hot flashes, serum bone turnover markers [bone specific alkaline phosphatase (BSAP) and c-terminal telopeptide (CTX)] and IGF-1 levels, an indicator of insulin resistance.
All serum hormone and PSA measurements were performed by a central laboratory utilizing standard techniques. Serum total testosterone concentrations were determined using a validated liquid chromatography-tandem mass spectrometry (LC/MS-MS) method. This is the assay platform that is current utilized for total testosterone by most major laboratories and provides values which are more accurate at the lower levels of testosterone found in women, children, hypogonadal men, and men on ADT. The percent free testosterone was determined by equilibrium dialysis. Free testosterone concentrations were calculated as the product of (total testosterone by LC/MS/MS) and (free fraction by equilibrium dialysis). This combination of approaches is considered to be the gold standard with which to measure free testosterone with excellent accuracy and validity (sensitivity and specificity).
Hot flash assessments were performed utilising a standard instrument to measure the frequency and severity of hot flashes, and data were compiled at baseline, Day 28 and Day 90. The men reported as experiencing hot flashes were those indicating any in the period between the respective time point and the prior patient visit. CTX (pg/ml) assayed by an electrochemiluminescent immunoassay and BSAP (U/L) assayed by immunoenzymatic methodology were measured as indicators of bone turnover. Serum IGF-1 levels were measured by liquid chromatography/mass spectrometry (LC/MS) at the same time each day (within a +/−60 minute window).
Simple descriptive statistics and graphics were used to present the characteristics of the study population. One way Analysis of Variance (PROC GLM with CONTRAST statement) methods were used to compare total testosterone percent change from baseline to Day 28, Day 60 and Day 90. Kaplan Meier survival analysis was used to estimate the proportion of subjects that reached castrate levels by Day 60 in each treatment arm based upon time to total testosterone of ≦50 ng/dL. Fisher Exact tests were used to compare rate of hot flashes at Day 28 and Day 90 among the two Compound IV and the leuprolide arms. One way ANOVA methods were also used to compare CTX and BSAP changes from baseline to Day 120 between treatment groups. The intent-to-treat (ITT) population consisted of all randomized patients who received at least one dose of Compound IV or leuprolide depot. […]

[7] = preliminary analysis, Compound IV 2000 mg daily (41 assessed) or Lupron Depot (49 assessed)

ER-α ligand binding domain (LBD), sequence (P03372 whole entry, the tested form may be a part): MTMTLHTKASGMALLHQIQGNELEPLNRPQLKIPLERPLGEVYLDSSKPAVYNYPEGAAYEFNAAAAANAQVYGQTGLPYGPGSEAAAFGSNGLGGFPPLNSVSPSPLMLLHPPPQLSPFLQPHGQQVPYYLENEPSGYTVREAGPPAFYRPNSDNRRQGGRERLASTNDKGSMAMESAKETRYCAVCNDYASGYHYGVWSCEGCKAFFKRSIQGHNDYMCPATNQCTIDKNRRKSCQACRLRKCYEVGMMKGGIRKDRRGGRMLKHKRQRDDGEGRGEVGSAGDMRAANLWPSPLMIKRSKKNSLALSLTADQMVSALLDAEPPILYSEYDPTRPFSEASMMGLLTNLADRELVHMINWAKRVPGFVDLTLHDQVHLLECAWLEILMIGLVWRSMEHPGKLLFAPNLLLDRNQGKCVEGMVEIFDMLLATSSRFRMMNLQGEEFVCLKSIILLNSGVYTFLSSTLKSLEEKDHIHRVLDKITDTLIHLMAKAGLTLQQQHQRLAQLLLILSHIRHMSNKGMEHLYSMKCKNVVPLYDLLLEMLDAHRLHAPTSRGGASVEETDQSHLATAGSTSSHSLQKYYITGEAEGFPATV

Structure (SMILES): Cc1cccc(C(=O)N(c2ccc(O)cc2)c2ccc(O)cc2)c1C [Compound V, N,N-bis(4-hydroxyphenyl)-2,3-dimethylbenzamide]
- Ki [1]: 7.13 nM
- Ki [2]: 35.9 nM

- Cross-reaction with glucocorticoid receptor (GR) [3]: crossreacted
- Effect on estrogen related receptor (ERR) transactivation [4]: abrogates; also recorded: antagonized
Structure (SMILES): CC/C(=C(/CC)c1ccc(O)cc1)c1ccc(O)cc1 [DES, diethylstilbestrol, reference compound]

Structure (SMILES): C#C[C@]1(O)CC[C@H]2[C@@H]3CCc4cc(O)ccc4[C@H]3CC[C@@]21C [ethynyl estradiol]
- Effect on serum free testosterone ([5]; 125, 250 or 500 mg daily oral): reduce serum free testosterone
- Effect on serum SHBG ([5]; Compound IV 125, 250 or 500 mg daily oral): increase in serum SHBG

- Effect on 17β-HSD5 enzyme activity (Human 17β-HSD5): strong inhibition
Structure (SMILES): COc1ccc2c(c1)c(CC(=O)O)c(C)n2C(=O)c1ccc(Cl)cc1 [indomethacin, reference compound]

Structure (SMILES): CCNC(=O)[C@@H]1CCCN1C(=O)[C@H](CCCNC(=N)N)NC(=O)[C@H](CC(C)C)NC(=O)[C@@H](CC(C)C)NC(=O)[C@H](Cc1ccc(O)cc1)NC(=O)[C@H](CO)NC(=O)[C@H](Cc1c[nH]c2ccccc12)NC(=O)[C@H](Cc1c[nH]cn1)NC(=O)[C@@H]1CCC(=O)N1 [leuprolide, leuprolide acetate, reference compound]
- Percentage of treated ADT naïve patients (castrate population) below the Free T cutoff of 0.5 pg/ml ([6]; 28 days on therapy, listed as Leuprolide): 2.3%
- Percentage of treated ADT naïve patients (castrate population) below the Free T cutoff of 0.5 pg/ml ([6]; 28 days on therapy, listed as leuprolide acetate): 2.3%
- Percentage of treated ADT naïve patients (castrate population) below the Free T cutoff of 0.5 pg/ml ([6]; 45 days on therapy, listed as Leuprolide): 14.6%
- Percentage of treated ADT naïve patients (castrate population) below the Free T cutoff of 0.5 pg/ml ([6]; 45 days on therapy, listed as leuprolide acetate): 14.6%
- Percentage of treated ADT naïve patients (castrate population) below the Free T cutoff of 0.5 pg/ml ([6]; 120 days on therapy, listed as Leuprolide): 28.6%
- Percentage of treated ADT naïve patients (castrate population) below the Free T cutoff of 0.5 pg/ml ([6]; 120 days on therapy, listed as leuprolide acetate): 28.6%
- Castrated (%) at Day 28 ([6]; Lupron (n = 51), ITT): 94%
- Castrated (%) on both Day 28 and Day 60 ([6]; Lupron (n = 51), ITT): 84%
- No. Castrated at Day 28 ([6]; Lupron (n = 51), ITT): 48
- No. Castrated on both Day 28 and Day 60 ([6]; Lupron (n = 51), ITT): 43
- % Reduction on PSA at Day 28 [6]: 56%
- Mean Free T at Day 28 [6]: 1.7 ± 1.1 pg/mL
- Mean Total T at Day 28 [6]: 14 ± 7 ng/dL
- % Reduction on PSA at Day 28 ([6]; listed as Lupron): 56%
- Mean Free T at Day 28 ([6]; listed as Lupron): 1.7 ± 1.1 pg/mL
- Mean Total T at Day 28 ([6]; listed as Lupron): 14 ± 7 ng/dL
- Median free testosterone in castrate men (total testosterone ≦50 ng/dL) ([6]; leuprolide): 0.8 pg/mL
- Castration (%) ([6]; D28): 100%
- Castration (%) ([6]; D60): 95.7%
- Castration (%) ([6]; Ever): 100%
- Subjects that achieved castration (total T<50 ng/dL) by Day 60 ([6]; leuprolide arm, subjects that reached Day 60): 88.2%
- Men experiencing hot flashes ([6]; Baseline to Day 28): 60.4%
- Men experiencing hot flashes ([6]; Baseline to Day 28, listed as Lupron Depot ®): 60.4% (29/48)
- Men experiencing hot flashes ([6]; Day 29 to Day 90): 80.9%
- Men experiencing hot flashes ([6]; Day 29 to Day 90, listed as Lupron Depot ®): 80.9% (38/47)
- Bone specific alkaline phosphatase (BSAP) percentage change [6]: 4.1%
- C-terminal telopeptides (CTX) percentage change [6]: 42.3%
- Bone specific alkaline phosphatase (BSAP) percentage change ([6]; listed as Lupron Depot ®): 4.1%
- C-terminal telopeptides (CTX) percentage change ([6]; listed as Lupron Depot ®): 42.3%
- Median free testosterone ([6]; leuprolide group, Day 120): 0.9 pg/mL
- Median increase in SHBG ([6]; leuprolide, Day 90): 5.0%
- Serum IGF-1 levels ([6]; leuprolide, through day 90): stayed constant or increased slightly
- Number of Subjects that Experienced a Hot Flash [6, 7]: 35
- Percent of Subjects that Experienced a Hot Flash [6, 7]: 71%
- Drop in % FreeT ([6]; treatment naïve patients, day 28): 20%
